{"source": "patent US20210322393A1", "about": "“METHODS OF TREATING COGNITIVE IMPAIRMENT ASSOCIATED WITH NEURODEGENERATIVE DISEASE” (Aptinyx Inc., priority 2019, published 2021)", "type_in_all_cases": "in vivo", "key": {"[1]": {"test": "Pharmacokinetic profile in rat"}, "[2]": {"tested_on": "rodent cognitive models (novel object recognition)", "test": "Novel object recognition rodent cognitive model"}, "Tolerability in rat": {"test": "Tolerability in rat"}, "[3]": {"test": "Pharmacokinetic profile in dog"}, "Tolerability in dog": {"test": "Tolerability in dog"}, "[4]": {"tested_on": "MPTP non-human primate model of Parkinson's disease cognitive impairment", "test": "Chronic low dose MPTP non-human primate model of Parkinson's disease cognitive impairment"}, "[5]": {"tested_on": "rodent cognitive models (Morris water maze)", "test": "Morris water maze rodent cognitive model"}}, "data": [{"smiles": "COc1ccc(CN2C[C@@]3(CCNC(=O)C3)C2=O)cc1", "note": "[The Compound, (S) 2-(4-methoxybenzyl)-2,7-diazaspiro[3.5]nonane-1,6-dione]", "values": [{"measurement": "pharmacokinetic profile", "setting": "[1]", "value": "favorable pharmacokinetic profile"}, {"measurement": "efficacy in novel object recognition", "setting": "[2]", "value": "robust efficacy"}, {"measurement": "tolerability", "setting": "Tolerability in rat", "value": "well tolerated"}, {"measurement": "pharmacokinetic profile", "setting": "[3]", "value": "favorable pharmacokinetic profile"}, {"measurement": "tolerability", "setting": "Tolerability in dog", "value": "well tolerated"}, {"measurement": "onset, size and duration of effect", "setting": "[4]; MPTP non-human primate study", "value": "rapid, robust, and long lasting effect"}, {"measurement": "effect on MPTP-induced cognitive deficits (attention, working memory, executive function)", "setting": "[4]; primate versions of Cambridge Neuropsychological Test Automated Battery assessments", "value": "reversed MPTP-induced deficits in several cognitive domains"}, {"measurement": "efficacy in Morris water maze", "setting": "[5]", "value": "robust efficacy"}]}]}
